From patent US6969721B2, “Tricyclic-2-pyridone compounds useful as HIV reverse transcriptase inhibitors” (Bristol-Myers Squibb Pharma, priority 2000, dated 2005)
In brackets after ≈: the same amount, converted by molar mass.

System: HIV-1 (RF)
Experiment: HIV RNA assay, microplate based compound evaluation in HIV-1 infected MT-2 cells
Type: cell-based
Details: Human immunodeficiency virus 1, MT2, 72 h; HIV-1 (RF) in MT-2 cells, 3 days culture; virus dilutions selected to give this value; read-out: IC90 value (concentration of compound required to reduce the HIV RNA level by 90%)
Experimental: MT-2 and MT-4 cells were maintained in RPMI 1640 supplemented with 5% fetal calf serum (FCS) for MT-2 cells or 10% FCS for MT-4 cells, 2 mM L-glutamine and 50 μg/mL gentamycin, all from Gibco. HIV-1 RF was propagated in MT-4 cells in the same medium. Virus stocks were prepared approximately 10 days after acute infection of MT-4 cells and stored as aliquots at −70° C. Infectious titers of HIV-1(RF) stocks were 1-3×10^7 PFU (plaque forming units)/mL as measured by plaque assay on MT-2 cells (see below) Each aliquot of virus stock used for infection was thawed only once.
For evaluation of antiviral efficacy, cells to be infected were subcultured one day prior to infection. […]
Cell lysates or purified RNA in 3 M or 5 M GED were mixed with 5 M GED and capture probe to a final guanidinium isothiocyanate concentration of 3 M and a final biotin oligonucleotide concentration of 30 nM. […] Immobilized alkaline phosphatase activity was detected by addition of 100 μL of 0.2 mM 4-methylumbelliferyl phosphate (MUBP, JBL Scientific) in buffer (2.5 M diethanolamine pH 8.9 (JBL Scientific), 10 MM MgCl2, 5 mM zinc acetate dihydrate and 5 mM N-hydroxyethyl-ethylene-diamine-triacetic acid). […] Fluorescence at […] was measured using a microplate fluorometer (Dynateck) exciting at […]. […]

IC90: 0.2 µg/mL (≈ 0.947 µM)
Compound: Nc1ccn([C@H]2CC[C@@H](CO)O2)c(=O)n1 [ddC, 2′,3′-dideoxycytidine]
